Assay results as given in ChEMBL document CHEMBL1156571, “ent-kaurane diterpenoids from the liverwort Jungermannia atrobrunnea” (2008).
In brackets after ≈: the same amount, converted by molar mass.

Tested on: Candida albicans
Test: Antifungal activity against Candida albicans ATCC 10231 after 24 hrs by broth microdilution method
Settings: ATCC 10231, 24 h

C=C1[C@H]2CC3=C[C@H](OC(C)=O)[C@@H]4C(C)(C)CC[C@H](OC(C)=O)[C@@]4(C)[C@@]34OO[C@]1(O)[C@H]4[C@H]2O [JUNGERMATROBRUNIN A]
MIC: 128 µg/mL (≈ 285 µM)

C=C1[C@@H]2CC=C3[C@](C2)(C[C@H](O)[C@@H]2C(C)(C)CCC[C@@]32C)[C@@H]1OC(C)=O
MIC: 128 µg/mL (≈ 372 µM)

CC(=O)O[C@H]1C[C@@]23C[C@@H](C(=O)C=C2[C@]2(C)[C@@H](OC(C)=O)CCC(C)(C)[C@@H]12)[C@@H](C)C3=O
MIC: 128 µg/mL (≈ 307 µM)

C=C1C(=O)[C@@H]2C3=C(C[C@H](OC(C)=O)[C@@H]4C(C)(C)CC[C@H](OC(C)=O)[C@@]34C)C[C@H]1[C@@H]2O
MIC: 128 µg/mL (≈ 307 µM)

C=C1C(=O)[C@@]23C[C@H](OC(C)=O)[C@@H]4C(C)(C)CC[C@H](OC(C)=O)[C@@]4(C)C2=C[C@@H](O)[C@@H]1C3
MIC: 128 µg/mL (≈ 307 µM)

C=C1C(=O)[C@@]23C[C@H](OC(C)=O)[C@@H]4C(C)(C)CC[C@H](O)[C@@]4(C)C2=C[C@@H](O)[C@@H]1C3
MIC: 128 µg/mL (≈ 342 µM)

C=C1C(=O)[C@]23C[C@H]1C(=O)C=C2[C@]1(C)[C@@H](OC(C)=O)CCC(C)(C)[C@H]1[C@@H](OC(C)=O)C3
MIC: 128 µg/mL (≈ 309 µM)

C=C1[C@H]2C[C@@]3(C[C@H](OC(C)=O)[C@@H]4C(C)(C)CCC[C@@]4(C)C3=CC2=O)[C@@H]1OC(C)=O
MIC: 128 µg/mL (≈ 320 µM)

C=C1[C@@H]2CC=C3[C@](C2)(C[C@H](OC(C)=O)[C@@H]2C(C)(C)CCC[C@@]32C)[C@@H]1OC(C)=O
MIC: 128 µg/mL (≈ 331 µM)

C=C1C(=O)[C@@H]2C3=C(C[C@H]1[C@@H]2O)C[C@H](O)[C@@H]1C(C)(C)CC[C@H](OC(C)=O)[C@@]31C
MIC: 128 µg/mL (≈ 342 µM)
